Reference: patent publication US10047069B2, “Compositions comprising an inhibitor of lysine specific demethylase-1” (Celgene Quanticel Research, Inc., priority 2015, dated 2018)
In brackets after ≈: the same amount, converted by molar mass.

Columns and labels:
Type in all cases: physicochemical
[1] = Stability post-storage at 40° C./75% RH assessed by XRPD; conditions: for Stability post-storage at 40° C./75% RH: form change assessed by XRPD
Description: (§1) Representative samples for the twenty-six forms were further analysed by NMR/IC and DSC. The stability of the samples after storage at 40° C./75% RH was also assessed by XRPD. Solubility in FeSSIF media was determined for selected samples. […] IC was employed to determine the molar equivalence for inorganic counterions, sulphate and phosphate.

[2] = Thermodynamic solubility in FeSSIF; conditions: for solubility at 24 h / Solubility in FeSSiF: fed state simulated intestinal fluid (FeSSIF), equilibrated at 25° C. for 24 hours; for XRPD of residue: residue of the FeSSIF solubility test, analysed by XRPD as a damp solid
Description: Solubility was determined by suspending sufficient compound in fed state simulated intestinal fluid (FeSSIF) to give a maximum final concentration of >3 mg/ml of the parent free-form of the compound. The suspension was equilibrated at 25° C. for 24 hours then the pH was measured. The suspension was then filtered through a glass fibre C filter. The residue was analysed by XRPD as a damp solid. The filtrate was diluted by an appropriate factor prior to analysis by HPLC. Quantitation by HPLC was performed with reference to a standard solution of approximately 0.2 mg/ml in DMSO. Different volumes of the standard, diluted and undiluted sample solutions were injected. The solubility was calculated using the peak areas determined by integration of the peak found at the same retention time as the principal peak in the standard injection. Analysis was performed on an Agilent HP1100 series system equipped with a diode array detector and using ChemStation software vB.04.03.

[3] = Gravimetric vapor sorption (GVS); conditions: 25° C.
Description: Sorption isotherms were obtained using a SMS DVS Intrinsic moisture sorption analyzer, controlled by DVS Intrinsic Control software v1.0.1.2 (or v 1.0.1.3). The sample temperature was maintained at 25° C. by the instrument controls. The humidity was controlled by mixing streams of dry and wet nitrogen, with a total flow rate of 200 ml/min. The relative humidity was measured by a calibrated Rotronic probe (dynamic range of 1.0-100% RH), located near the sample. The weight change, (mass relaxation) of the sample as a function of % RH was constantly monitored by the microbalance (accuracy±0.005 mg). Approximately 13 mg of sample was placed in a tared mesh stainless steel basket under ambient conditions. The sample was loaded and unloaded at 40% RH and 25° C. (typical room conditions). A moisture sorption isotherm was performed as outlined below (two scans giving one complete cycle). The standard isotherm was performed at 25° C. at 10% RH intervals over a 0%-90% RH range. Data analysis was carried out using Microsoft Excel using DVS Analysis Suite v6.2 (or 6.1 or 6.0). The sample was recovered after completion of the isotherm and re-analyzed by XRPD.

[4] = Salt screen assessment compared to the HCl salt
Description: as §1

[5] = Thermal stability from onset of DSC events; conditions: onsets of DSC events greater than 200° C.
Description: DSC data were collected on a Mettler DSC 823E equipped with a 34 position auto-sampler. The instrument was calibrated for energy and temperature using certified indium. Typically, 0.9-6 mg of each sample, in a pin-holed aluminum pan, was heated at 10° C./min from 25° C. to 350° C. A nitrogen purge at 50 ml/min was maintained over the sample. The instrument control and data analysis software was STARe v12.1.
The twenty remaining forms have thermal events occurring from as low as ˜30° C. These may be solvated/hydrated forms.

SMILES	Stability after 14 days storage at 40° C./75% RH ([1]; 14 days, confirmed by XRPD)	Stability post-storage at 40° C./75% RH [1]	solubility at 24 h ([2]; 25 °C, pH 4.9, fessif, thermodynamic from solid) [µg/mL]	solubility at 24 h ([2]; pH 4.9, thermodynamic from solid) [µg/mL]	XRPD of residue [2]	uptake at 90% RH by GVS [3] [%]	stability and solubility when compared to the HCl salt [4]	Solubility in FeSSiF [2] [µg/mL]	thermal stability [5]
COc1ccc(-c2c(-c3ccc(C#N)c(F)c3)nc(N3CCC(N)CC3)n(C)c2=O)cc1F.Cl [HCL 1, 4-[2-(4-aminopiperidin-1-yl)-5-(3-fluoro-4-methoxyphenyl)-1-methyl-6-oxo-1,6-dihydropyrimidin-4-yl]-2-fluorobenzonitrile hydrochloride]	Partial crystallization of a new form	Extra peaks observed	740	750	Amorphous	14	–	–	–
COc1ccc(-c2c(-c3ccc(C#N)c(F)c3)nc(N3CCC(N)CC3)n(C)c2=O)cc1F [MSA 1, 4-[2-(4-aminopiperidin-1-yl)-5-(3-fluoro-4-methoxyphenyl)-1-methyl-6-oxo-1,6-dihydropyrimidin-4-yl]-2-fluorobenzonitrile]	–	No form change	–	–	Largely amorphous	–	improved stability and solubility	1010 (≈ 2240 µM)	good thermal stability
COc1ccc(-c2c(-c3ccc(C#N)c(F)c3)nc(N3CCC(N)CC3)n(C)c2=O)cc1F [BA 1, 4-[2-(4-aminopiperidin-1-yl)-5-(3-fluoro-4-methoxyphenyl)-1-methyl-6-oxo-1,6-dihydropyrimidin-4-yl]-2-fluorobenzonitrile]	–	No significant	–	–	Poor crystallinity	–	improved stability and solubility	880 (≈ 1950 µM)	good thermal stability
COc1ccc(-c2c(-c3ccc(C#N)c(F)c3)nc(N3CCC(N)CC3)n(C)c2=O)cc1F [SO4 1, 4-[2-(4-aminopiperidin-1-yl)-5-(3-fluoro-4-methoxyphenyl)-1-methyl-6-oxo-1,6-dihydropyrimidin-4-yl]-2-fluorobenzonitrile]	–	No form change	–	–	Amorphous	–	improved stability and solubility	720 (≈ 1590 µM)	good thermal stability
COc1ccc(-c2c(-c3ccc(C#N)c(F)c3)nc(N3CCC(N)CC3)n(C)c2=O)cc1F [BSA 1, 4-[2-(4-aminopiperidin-1-yl)-5-(3-fluoro-4-methoxyphenyl)-1-methyl-6-oxo-1,6-dihydropyrimidin-4-yl]-2-fluorobenzonitrile]	–	No form change	–	–	BSA 1 - poor	–	improved stability and solubility	840 (≈ 1860 µM)	good thermal stability
